US20060293516A1, “Penicillin crystal and process for producing the same” (priority 2003, published 2006)

How the values were obtained:
[1] = Stability of CMPB in dichloromethane solution, remaining CMPB by liquid chromatography; format: physicochemical; conditions: stirred at room temperature (about 25° C.)
Protocol: One gram of crystalline CMPB (purity: 97%) prepared by storing the crystalline CMPB of Example 1 for 20 days at room temperature (about 25° C.) and 1.244 g of amorphous CMPB (purity: 78%) prepared by storing the amorphous CMPB of Reference Example 1 for 20 days at room temperature (about 25° C.) were used as test samples. Each sample was placed in flasks and 10 ml dichloromethane was added to dissolve the sample. These flasks were sealed. […] The amounts of the remaining CMPB were compared with the amount of CMPB in the crystalline CMPB sample or the amount of CMPB in the amorphous CMPB sample, which were measured prior to the test.

[2] = Storage stability of solid CMPB at room temperature, purity by liquid chromatography; format: physicochemical
Protocol: Five grams of the crystalline CMPB obtained in Example 1 (purity: 100%) and 5 g of the amorphous CMPB obtained in Reference Example 1 (purity: 99.2%) were placed in respective test tubes. These test tubes were sealed and stored at room temperature (20 to 30° C.) for 1 month. The respective purities of the CMPB samples were then determined using liquid chromatography.
One gram of crystalline CMPB (purity: 97%) prepared by storing the crystalline CMPB of Example 1 for 20 days at room temperature (about 25° C.) and 1.244 g of amorphous CMPB (purity: 78%) prepared by storing the amorphous CMPB of Reference Example 1 for 20 days at room temperature (about 25° C.) were used as test samples. Each sample was placed in flasks and 10 ml dichloromethane was added to dissolve the sample. These flasks were sealed. The dichloromethane solutions of CMPB samples were stirred at room temperature (about 25° C.) and, after 3.5 hours and after […], subjected to liquid chromatography to measure the amounts of CMPB remaining in the solutions. The amounts of the remaining CMPB were compared with the amount of CMPB in the crystalline CMPB sample or the amount of CMPB in the amorphous CMPB sample, which were measured prior to the test.

[3] = sealed test tube, room temperature (20 to 30° C.), 1 month, initial purity 100% (crystalline), 99.2% (amorphous)
[4] = stored 20 days at room temperature (about 25° C.)

Row | SMILES | amount of CMPB remaining in dichloromethane solution relative to initial amount ([1]; after 3.5 hours) | amount of CMPB remaining in dichloromethane solution relative to initial amount ([1]; after 6 hours (so in the source)) | purity after storage [2, 3] | purity after storage [2, 4] | amount of CMPB remaining in dichloromethane solution relative to initial amount ([1]; after 5 hours)
1 | C[C@@]1(CCl)SC2CC(=O)N2[C@H]1C(=O)OC(c1ccccc1)c1ccccc1 (stereo partly drawn) [amorphous CMPB, 2β-chloromethyl-2α-methylpenam-3α-carboxylic acid benzhydryl ester] | 86.8% | 63.4% | 67% | 78% | –
2 | C[C@@]1(CCl)SC2CC(=O)N2[C@H]1C(=O)OC(c1ccccc1)c1ccccc1 (stereo partly drawn) [crystalline CMPB, 2β-chloromethyl-2α-methylpenam-3α-carboxylic acid benzhydryl ester] | exactly the same as the initial amount | – | 95% | 97% | exactly the same as the initial amount
